According to patent US10876089B2, “Apparatus and method for high-fidelity podocyte cultivation” (priority 2016, dated 2020):
Entries after “also recorded” stand apart in the source; their conditions may differ.

Key:
Assay type in all cases: cell-based
[1] = test system: murine nephrin gene (NPHS1) in E11 murine podocytes; test: PAN stimulation of differentiated podocytes, nephrin gene expression by RT-qPCR; conditions: 17-100 μM PAN for 24 hours (day 8 to 9); microcurvature surface; 15,000 cells/cm^2; (+)ATRA media
Protocol: On day 9, cells were washed with warm, non-supplemented RPMI 1640 basal media prior to lysing and RNA isolation. A High Pure RNA Isolation Kit (Roche) was used according to manufacturer's instructions, using 50 μL of elution buffer for the final step. Each sample from the study consisted of 3 individual wells pooled together, to ensure that a sufficient amount of RNA was being collected. Thus, 9 wells were seeded for each group to generate n=3 samples per condition. Isolated RNA was converted to complementary DNA (cDNA) using the High Capacity cDNA Reverse Transcription Kit (Applied Biosystems, USA) for ensuing PCR applications. RNA solutions were diluted to a final 7.5 ng/μL in a total reaction volume of 60 μL. Real-time PCR was run on the generated cDNA using the TaqMan Gene Expression Assay (Applied Biosystems). cDNA was diluted to 3.33 ng/μL in a volume of 9 μL, for a total of 30 ng cDNA per reaction. […] Expression of murine nephrin gene (NPHS1, Thermo Fisher Scientific) and the housekeeping gene Beta-2-Microglobulin (B2M, Thermo Fisher Scientific) was determined using relative quantification analysis (28), where C57/bl6 mouse whole kidney cDNA was used as a positive control and as a normalizer in calculations. […]

E11 murine podocytes = test: Immunofluorescent staining (F-actin, nephrin, WGA) of differentiated podocytes; conditions: 100 μM PAN vs without PAN; microcurvature surface
Protocol: For immunofluorescent staining, cells were first washed with Dulbecco's phosphate buffered saline (DPBS, Life Technologies) and then fixed in 4% paraformaldehyde solution for 15 min at room temperature, followed by another wash with DPBS. For F-actin staining, the cells were permeated and blocked in 10% (v/v) FBS and 0.25% Triton X100 in DPBS for 1 hour. Next, the cells were incubated with Alexa Fluor® 660 phalloidin (Thermo Fisher Scientific) for 1 hour. For Nephrin and Wheat Germ Agglutinin (WGA) staining, the cells were blocked in 10% normal goat serum for 1 hour. Next, the cells were incubated in primary anti-Nephrin antibody (Thermo Fisher Scientific) overnight at 4° C. followed by incubation with FITC goat anti-rabbit IgG (1:200 dilutions, Abcam, UK) for 1 hour at room temperature. Lastly, the cells were incubated with Rhodamine-WGA (1:1000 dilution, Vector Laboratories, USA) for 10 min at room temperature.
The additional influence of the microcurvature topography is shown by the change from compacted, spindle-like cells to arborized morphologies. This was especially evident in the vehicle-only group.
From immunostaining results, it appeared that cell membrane area and nephrin expression decreased, indicating a possible reduction in cell spreading as a result of the PAN insult. However, the localization of nephrin still consistently appeared on top of the bubbles. […]

podocyte layer = test: Permeability of cells cultured on transwell microcurvature or flat membrane; conditions: treatment by PAN, 15,000 or 50,000 cells/cm^2
Excerpt: One of the important physiological consequences from the disruption of the nephrin adhesion protein is the loss of barrier function from the podocyte slit diaphragm, which leads to abnormal protein levels in urine (e.g. albumin, etc.). The disclosed microcurvature membrane system may enable a direct measurement of the permeability of the podocyte layer in a non-invasive manner, in order to probe the barrier function at the podocyte slit diaphragm.
The permeability of the microcurvature membrane, without cells, may be investigated using dye, fluorescently labeled molecules, or any molecule whose concentration may be quantified in the chamber solution. Some examples include 1-10 μM of 70 kDa TRITC-dextran or 60 kDa FITC-albumin. The molecule of interest may be placed in the upper transwell chamber and collected in the lower chamber over time, or vice-versa. […] FIG. 12F is a plot of example preliminary results showing the permeability of the membrane surface (also referred to as a “topomembrane”) in different configurations, namely without microcurvature (“flat topomembrane”) or with convex microcurvature (“bubble topomembrane”); with cells cultivated on the surface (“+cells”), before cell cultivation (“no cells”) or after cultivated cells are removed (“cells removed”); and compared to the culture well without any membrane (“transwells”). […]

## CN(C)c1ncnc2c1ncn2[C@@H]1O[C@H](CO)[C@@H](N)[C@H]1O [PAN, Puromycin amino nucleoside]
[1]
  nephrin gene expression compared to the PAN-free control: moderate downregulation; also recorded: dose-response downregulated behaviour
E11 murine podocytes
  cell membrane area (immunostaining): decreased
  nephrin expression (immunostaining): decreased
Podocyte layer
  permeability of cells in response to chemical insult: increasing permeability
